From ChEMBL document CHEMBL5537158, “Polymyxins with Potent Antibacterial Activity against Colistin-Resistant Pathogens: Fine-Tuning Hydrophobicity with Unnatural Amino Acids” (J Med Chem, 2024)
Converted amounts (≈) assume the structure as drawn. Positions of bridges follow the written chain, without caps; N, C: chain ends. Non-standard residues stand in square brackets, D forms with d. Residues, ends and D or L forms follow the SMILES beside them. *: point of attachment. dPhe(F5) = N[C@H](Cc1c(F)c(F)c(F)c(F)c1F)C(=O)O; dPhe(3-F) = N[C@H](Cc1cccc(F)c1)C(=O)O; dPhe(4-F) = N[C@H](Cc1ccc(F)cc1)C(=O)O; Phe(2-F) = N[C@@H](Cc1ccccc1F)C(=O)O; d(hPhe) = N[C@H](CCc1ccccc1)C(=O)O; d(hLeu) = CC(C)CC[C@@H](N)C(=O)O; dAoc(2) = CCCCCC[C@@H](N)C(=O)O; Octanoyl = CCCCCCCC(=O)*; Dab = NCC[C@H](N)C(=O)O

Legend:
Klebsiella pneumoniae = assay: Antimicrobial activity against Klebsiella pneumoniae ATCC 13883 assessed as bacterial growth inhibition incubated for 20 hrs by broth microdilution method; format: functional
[1] = Hemolytic activity in human RBC at 400 ug/ml after 1 hr; format: toxicity, cell-based, Erythrocyte; settings: red blood cells (erythrocytes), at 400 µg/mL, read-out: Activity
Acinetobacter baumannii [2] = assay: Antimicrobial activity against Acinetobacter baumannii ATCC 19606 assessed as bacterial growth inhibition incubated for 20 hrs by broth microdilution method; format: functional
Escherichia coli [3] = assay: Antimicrobial activity against […] Escherichia coli harboring mcr-1 assessed as bacterial growth inhibition incubated for 20 hrs by broth microdilution method; format: functional
Escherichia coli [4] = assay: Antibacterial activity against Escherichia coli ATCC 25922 assessed as bacterial growth inhibition incubated for 20 hrs by broth microdilution method; format: functional
Acinetobacter baumannii [5] = assay: Antimicrobial activity against colistin resistant Acinetobacter baumannii ATCC 3658/17 assessed as bacterial growth inhibition incubated for 20 hrs by broth microdilution method; format: functional
Pseudomonas aeruginosa [6] = assay: Antimicrobial activity against colistin resistant Pseudomonas aeruginosa 7197/19 assessed as bacterial growth inhibition incubated for 20 hrs by broth microdilution method; format: functional
Pseudomonas aeruginosa [7] = assay: Antimicrobial activity against Pseudomonas aeruginosa PAO1 assessed as bacterial growth inhibition incubated for 20 hrs by broth microdilution method; format: functional

CC(=O)N[C@H](Cc1ccc(Cl)cc1)C(=O)N[C@@H](CCN)C(=O)N[C@H](C(=O)N[C@@H](CCN)C(=O)N[C@H]1CCNC(=O)[C@H]([C@@H](C)O)NC(=O)[C@H](CCN)NC(=O)[C@H](CCN)NC(=O)[C@H](CC(C)C)NC(=O)[C@@H](Cc2ccccc2)NC(=O)[C@@H](CCN)NC1=O)[C@H](C)O
MIC (Klebsiella pneumoniae): 16 µg/mL (≈ 12.4 µM) | hemolysis at 1 h, 400 ug/ml [1]: < 10% | MIC (Acinetobacter baumannii [2]): 0.5 µg/mL (≈ 0.389 µM)

CCCCCCCC(=O)N[C@@H](CCN)C(=O)N[C@H](C(=O)N[C@@H](CCN)C(=O)N[C@H]1CCNC(=O)[C@H]([C@@H](C)O)NC(=O)[C@H](CCN)NC(=O)[C@H](CCN)NC(=O)[C@H](CC(C)C)NC(=O)[C@@H](Cc2ccc(F)cc2)NC(=O)[C@H](CCN)NC1=O)[C@@H](C)O (Octanoyl-[Dab]T[Dab][Dab][Dab][dPhe(4-F)]L[Dab][Dab]T; lactam 4-C)
MIC (Escherichia coli [3]): 2 µg/mL (≈ 1.66 µM) | MIC (Escherichia coli [4]): 0.03 µg/mL (≈ 0.0248 µM) | MIC (Acinetobacter baumannii [2]): 0.06 µg/mL (≈ 0.0497 µM) | MIC (Acinetobacter baumannii [5]): 0.25 µg/mL (≈ 0.207 µM)

CCCCCCCC(=O)N[C@@H](CCN)C(=O)N[C@H](C(=O)N[C@@H](CCN)C(=O)N[C@H]1CCNC(=O)[C@H]([C@@H](C)O)NC(=O)[C@H](CCN)NC(=O)[C@H](CCN)NC(=O)[C@H](Cc2ccccc2)NC(=O)[C@@H](CCCCCC)NC(=O)[C@H](CCN)NC1=O)[C@@H](C)O (Octanoyl-[Dab]T[Dab][Dab][Dab][dAoc(2)]F[Dab][Dab]T; lactam 4-C)
MIC (Escherichia coli [4]): 0.25 µg/mL (≈ 0.205 µM) | MIC (Klebsiella pneumoniae): 1 µg/mL (≈ 0.821 µM) | MIC (Pseudomonas aeruginosa [6]): 0.25 µg/mL (≈ 0.205 µM) | MIC (Acinetobacter baumannii [2]): 0.25 µg/mL (≈ 0.205 µM) | MIC (Acinetobacter baumannii [5]): 0.5 µg/mL (≈ 0.411 µM)

CCCCCCCC(=O)N[C@@H](CCN)C(=O)N[C@H](C(=O)N[C@@H](CCN)C(=O)N[C@H]1CCNC(=O)[C@H]([C@@H](C)O)NC(=O)[C@H](CCN)NC(=O)[C@H](CCN)NC(=O)[C@H](CC(C)C)NC(=O)[C@@H](Cc2c(F)c(F)c(F)c(F)c2F)NC(=O)[C@H](CCN)NC1=O)[C@@H](C)O (Octanoyl-[Dab]T[Dab][Dab][Dab][dPhe(F5)]L[Dab][Dab]T; lactam 4-C)
MIC (Escherichia coli [4]): < 0.125 µg/mL | MIC (Pseudomonas aeruginosa [7]): 0.25 µg/mL (≈ 0.195 µM) | MIC (Acinetobacter baumannii [2]): < 0.125 µg/mL | MIC (Acinetobacter baumannii [5]): 0.5 µg/mL (≈ 0.391 µM)

CC(=O)N[C@H](Cc1ccc(Br)cc1)C(=O)N[C@@H](CCN)C(=O)N[C@H](C(=O)N[C@@H](CCN)C(=O)N[C@H]1CCNC(=O)[C@H]([C@@H](C)O)NC(=O)[C@H](CCN)NC(=O)[C@H](CCN)NC(=O)[C@H](CC(C)C)NC(=O)[C@@H](Cc2ccccc2)NC(=O)[C@@H](CCN)NC1=O)[C@H](C)O
MIC (Escherichia coli [4]): 0.06 µg/mL (≈ 0.0451 µM) | MIC (Klebsiella pneumoniae): 8 µg/mL (≈ 6.01 µM) | MIC (Pseudomonas aeruginosa [7]): 0.125 µg/mL (≈ 0.0939 µM) | hemolysis at 1 h, 400 ug/ml [1]: < 10% | MIC (Pseudomonas aeruginosa [6]): 16 µg/mL (≈ 12 µM)

CCCCCCCC(=O)N[C@@H](CCN)C(=O)N[C@H](C(=O)N[C@@H](CCN)C(=O)N[C@H]1CCNC(=O)[C@H]([C@@H](C)O)NC(=O)[C@H](CCN)NC(=O)[C@H](CCN)NC(=O)[C@H](Cc2ccccc2F)NC(=O)[C@@H](CC(C)C)NC(=O)[C@H](CCN)NC1=O)[C@@H](C)O (Octanoyl-[Dab]T[Dab][Dab][Dab][dL][Phe(2-F)][Dab][Dab]T; lactam 4-C)
MIC (Escherichia coli [3]): 2 µg/mL (≈ 1.66 µM) | MIC (Escherichia coli [4]): 0.06 µg/mL (≈ 0.0497 µM) | MIC (Klebsiella pneumoniae): 4 µg/mL (≈ 3.31 µM) | MIC (Acinetobacter baumannii [2]): 0.125 µg/mL (≈ 0.104 µM)

CCCCCCCC(=O)N[C@@H](CCN)C(=O)N[C@H](C(=O)N[C@@H](CCN)C(=O)N[C@H]1CCNC(=O)[C@H]([C@@H](C)O)NC(=O)[C@H](CCN)NC(=O)[C@H](CCN)NC(=O)[C@H](CC(C)C)NC(=O)[C@@H](Cc2cccc(F)c2)NC(=O)[C@H](CCN)NC1=O)[C@@H](C)O (Octanoyl-[Dab]T[Dab][Dab][Dab][dPhe(3-F)]L[Dab][Dab]T; lactam 4-C)
MIC (Pseudomonas aeruginosa [7]): 0.25 µg/mL (≈ 0.207 µM) | MIC (Acinetobacter baumannii [2]): 0.25 µg/mL (≈ 0.207 µM) | MIC (Acinetobacter baumannii [5]): 4 µg/mL (≈ 3.31 µM)

CCCCCCCC(=O)N[C@@H](CCN)C(=O)N[C@H](C(=O)N[C@@H](CCN)C(=O)N[C@H]1CCNC(=O)[C@H]([C@@H](C)O)NC(=O)[C@H](CCN)NC(=O)[C@H](CCN)NC(=O)[C@H](CC(C)C)NC(=O)[C@@H](CCc2ccccc2)NC(=O)[C@H](CCN)NC1=O)[C@@H](C)O (Octanoyl-[Dab]T[Dab][Dab][Dab][d(hPhe)]L[Dab][Dab]T; lactam 4-C)
MIC (Escherichia coli [4]): 0.25 µg/mL (≈ 0.208 µM) | MIC (Pseudomonas aeruginosa [7]): 0.25 µg/mL (≈ 0.208 µM) | MIC (Acinetobacter baumannii [5]): 4 µg/mL (≈ 3.32 µM)

CCCCCCCC(=O)N[C@@H](CCN)C(=O)N[C@H](C(=O)N[C@@H](CCN)C(=O)N[C@H]1CCNC(=O)[C@H]([C@@H](C)O)NC(=O)[C@H](CCN)NC(=O)[C@H](CCN)NC(=O)[C@H](Cc2ccccc2)NC(=O)[C@@H](CCC(C)C)NC(=O)[C@H](CCN)NC1=O)[C@@H](C)O (Octanoyl-[Dab]T[Dab][Dab][Dab][d(hLeu)]F[Dab][Dab]T; lactam 4-C)
MIC (Escherichia coli [4]): < 0.125 µg/mL | MIC (Klebsiella pneumoniae): 0.5 µg/mL (≈ 0.415 µM) | MIC (Pseudomonas aeruginosa [6]): 0.23 µg/mL (≈ 0.191 µM) | MIC (Acinetobacter baumannii [2]): < 0.125 µg/mL | MIC (Acinetobacter baumannii [5]): 1 µg/mL (≈ 0.831 µM)
